Paper PMC8119466, “A screen of FDA-approved drugs identifies inhibitors of protein tyrosine phosphatase 4A3 (PTP4A3 or PRL-3)” (Scientific Reports, 2021)
Counter-ions that a name gives are not always drawn.

Experiments:
Type in all cases: biochemical
Details in all cases: FDA-approved drug screen
[1] = target: T1, recombinant PRL-2 (Homo sapiens, UniProt Q12974); test: In vitro phosphatase assay (DiFMUP hydrolysis), PRL-2;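 note: PRL-2 activity read as DiFMUP hydrolysis after 20 min at room temperature with drug, enzyme first pre-reduced at 4 °C for 20 min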
T1 construct: 6xHis (N, cleaved yes); made in house; host or cells: E. coli One Shot BL21 Star
T1 sequence (Q12974 1-167): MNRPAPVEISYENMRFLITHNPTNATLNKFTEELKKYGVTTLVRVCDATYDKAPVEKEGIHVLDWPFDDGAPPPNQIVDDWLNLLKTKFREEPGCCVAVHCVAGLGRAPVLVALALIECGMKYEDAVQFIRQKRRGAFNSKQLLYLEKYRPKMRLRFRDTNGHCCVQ

[2] = target: T2, recombinant PRL-3 (Homo sapiens, UniProt O75365); test: In vitro phosphatase assay (DiFMUP hydrolysis), PRL-3; note: test concentration or dose not given here
T2 construct: 6xHis (N, cleaved yes); made in house; host or cells: E. coli One Shot BL21 Star

[3] = target: T3, recombinant PRL-1 (Homo sapiens, UniProt Q93096); test: In vitro phosphatase assay (DiFMUP hydrolysis), PRL-1; note: test concentration or dose not given here
T3 construct: 6xHis (N, cleaved yes); made in house; host or cells: E. coli One Shot BL21 Star
T3 sequence (Q93096 1-173): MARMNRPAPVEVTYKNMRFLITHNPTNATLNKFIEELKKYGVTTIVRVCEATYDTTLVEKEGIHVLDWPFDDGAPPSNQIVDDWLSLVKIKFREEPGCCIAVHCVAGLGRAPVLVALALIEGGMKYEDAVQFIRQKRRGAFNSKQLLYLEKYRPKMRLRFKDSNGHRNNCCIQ

T2 sequence (O75365 whole entry): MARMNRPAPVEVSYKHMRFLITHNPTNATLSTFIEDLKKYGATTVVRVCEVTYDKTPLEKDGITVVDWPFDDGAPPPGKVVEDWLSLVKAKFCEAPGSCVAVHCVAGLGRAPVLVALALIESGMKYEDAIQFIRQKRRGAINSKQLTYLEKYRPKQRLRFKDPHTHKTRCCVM

Row | Compound | % Phosphatase Activity (compared to DMSO) PRL-2 ([1]; compared to DMSO) | % Phosphatase Activity (compared to DMSO) PRL-3 ([2]; compared to DMSO) | % Phosphatase Activity (compared to DMSO) PRL-1 ([3]; compared to DMSO) | % Phosphatase Activity (compared to DMSO) PRL-2 ([1]; activity compared to DMSO) | % Phosphatase Activity (compared to DMSO) PRL-3 ([2]; activity compared to DMSO) | % Phosphatase Activity (compared to DMSO) PRL-1 ([3]; activity compared to DMSO)
1 | CCC[C@@H]1C[C@@H](C(=O)N[C@@H]([C@H]2O[C@H](SC)[C@H](OP(=O)(O)O)[C@@H](O)[C@H]2O)[C@H](C)Cl)N(C)C1 [Clindamycin Phosphate] | 76% | 88% | 93% | – | – | –
2 | CC1(C)O[C@@H]2C[C@H]3[C@@H]4CCC5=CC(=O)C=C[C@]5(C)[C@@]4(F)[C@@H](O)C[C@]3(C)[C@]2(C(=O)CO)O1 [Triamcinolone Acetonide] | – | – | – | 95% | 78% | 99%
3 | Oc1ccc(/C=C/c2cc(O)cc(O)c2)cc1 [Resveratrol] | 112% | 84% | 107% | – | – | –
4 | CNC[C@H](O)c1cccc(O)c1 [Phenylephrine HCl] | 98% | 85% | 103% | – | – | –
5 | CC(=O)O[C@]1(C(C)=O)CC[C@H]2[C@@H]3C[C@H](C)C4=CC(=O)C=C[C@]4(C)[C@@]3(F)[C@@H](O)C[C@@]21C [Fluorometholone Acetate] | 96% | 79% | 91% | – | – | –
6 | CN1CC[C@H](c2c(O)cc(O)c3c(=O)cc(-c4ccccc4Cl)oc23)[C@H](O)C1 [Flavopiridol (Alvocidib)] | 82% | 68% | 92% | – | – | –
7 | Cc1cccc(C)c1NC(=O)CN1CCCC1=O [Nefiracetam] | 95% | 88% | 94% | – | – | –
8 | C[C@@H](O)[C@@H]1NC(=O)[C@H](CCCCN)NC(=O)[C@@H](Cc2c[nH]c3ccccc23)NC(=O)[C@H](Cc2ccccc2)NC(=O)[C@@H](NC(=O)[C@H](N)Cc2ccccc2)CSSC[C@@H](C(=O)N[C@H](CO)[C@@H](C)O)NC1=O [Octreotide Acetate] | 90% | 93% | 99% | – | – | –
9 | COc1cccc(-c2ccc(NC(=O)C3=C(C(=O)O)CCC3)c(F)c2)c1 [Vidofludimus] | – | – | – | 72% | 91% | 97%
10 | CC(C)(CO)C(O)C(=O)NCCCO (racemic) [DL-Panthenol] | 91% | 82% | 109% | – | – | –
11 | C[C@]12CCC(=O)C=C1CC[C@@H]1[C@@H]2[C@@H](O)C[C@@]2(C)[C@H]1CC[C@]2(O)C(=O)CO [Hydrocortisone] | 91% | 79% | 102% | – | – | –
12 | NC(=O)OCC(COC(N)=O)c1ccccc1 [Felbamate] | 97% | 71% | 103% | – | – | –
13 | COc1ccc2[nH]c([S+]([O-])Cc3ncc(C)c(OC)c3C)nc2c1 (stereo not drawn) [Omeprazole] | 96% | 54% | 89% | – | – | –

Now from value to molecule, other results behind:

Row | % Phosphatase Activity (compared to DMSO) PRL-2 ([1]; compared to DMSO) | % Phosphatase Activity (compared to DMSO) PRL-3 ([2]; compared to DMSO) | % Phosphatase Activity (compared to DMSO) PRL-1 ([3]; compared to DMSO) | Compound | % Phosphatase Activity (compared to DMSO) PRL-2 ([1]; activity compared to DMSO) | % Phosphatase Activity (compared to DMSO) PRL-3 ([2]; activity compared to DMSO) | % Phosphatase Activity (compared to DMSO) PRL-1 ([3]; activity compared to DMSO)
14 | 87% | 77% | 85% | C[C@@H]1C[C@H]2[C@@H]3CCC4=CC(=O)C=C[C@]4(C)[C@@]3(Cl)[C@@H](O)C[C@]2(C)[C@@]1(OC(=O)c1ccco1)C(=O)CCl [Mometasone furoate] | – | – | –
15 | 88% | 65% | 87% | CC(=O)O[C@@]12CO[C@@H]1C[C@H](O)[C@@]1(C)C(=O)[C@H](O)C3=C(C)[C@@H](OC(=O)[C@H](O)[C@@H](NC(=O)OC(C)(C)C)c4ccccc4)C[C@@](O)([C@@H](OC(=O)c4ccccc4)[C@H]21)C3(C)C [Docetaxel] | – | – | –
16 | 100% | 95% | 89% | CC(C)C(=O)Oc1ccc(CO)cc1[C@H](CCN(C(C)C)C(C)C)c1ccccc1 [Fesoterodine Fumarate] | – | – | –
17 | 81% | 92% | 102% | O=C(Nc1nc2cccc(-c3ccc(CN4CCS(=O)(=O)CC4)cc3)n2n1)C1CC1 [Filgotinib (GLPG0634)] | – | – | –
18 | 111% | 96% | 92% | COc1cc(Nc2ncc(F)c(Nc3ccc4c(n3)N(COP(=O)(O)O)C(=O)C(C)(C)O4)n2)cc(OC)c1OC [Fostamatinib (R788)] | – | – | –
